Source: ChEMBL document CHEMBL5506066, “Potency-Enhanced Peptidomimetic VHL Ligands with Improved Oral Bioavailability” (J Med Chem, 2024)
Values after ≈ are worked out from the molar mass of the structure shown.

Experiments:
[1] = Apparent permeability from apical to basolateral side in MDCKI cells at 10 uM measured upto 180 mins by LC-MS/MS analysis; assay type: ADME, cell-based, Canis lupus familiaris, MDCK1; details: dog, MDCK
[2] = Plasma protein binding in human at 5 uM incubated for 4 hrs by HPLC analysis; assay type: ADME, cell-free; details: read-out: PPB (converted)
[3] = Plasma protein binding in CD-1 mouse at 5 uM incubated for 4 hrs by HPLC analysis; assay type: ADME, cell-free; details: read-out: PPB (converted)
[4] = Solubility of the compound in FaSSIF; assay type: ADME
[5] = Plasma clearance in female C57Bl/6 mouse at 1 mg/kg, iv measured upto 8 hrs by LC-MS/MS analysis; assay type: ADME, organism-based
[6] = Volume of distribution in female C57Bl/6 mouse at 1 mg/kg, iv measured upto 8 hrs by LC-MS/MS analysis; assay type: ADME, organism-based; details: in vivo
[7] = Half life in female C57Bl/6 mouse at 10 mg/kg, po measured upto 8 hrs by LC-MS/MS analysis; assay type: ADME, organism-based; details: in vivo
[8] = Oral bioavailability in female C57Bl/6 mouse at 10 mg/kg measured upto 8 hrs by LC-MS/MS analysis; assay type: ADME, organism-based; details: in vivo
[9] = target: T1, von Hippel-Lindau disease tumor suppressor (Homo sapiens, UniProt P40337)
T1 sequence (P40337 whole entry): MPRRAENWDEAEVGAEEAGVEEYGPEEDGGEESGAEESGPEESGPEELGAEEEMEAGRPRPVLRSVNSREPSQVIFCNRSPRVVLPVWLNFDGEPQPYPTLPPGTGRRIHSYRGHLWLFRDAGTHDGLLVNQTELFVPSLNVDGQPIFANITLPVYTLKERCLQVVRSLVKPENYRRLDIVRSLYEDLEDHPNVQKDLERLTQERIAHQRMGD

[10] = target: T1, von Hippel-Lindau disease tumor suppressor; assay: biochemical
Description: Binding affinity to VHL (unknown origin)-NanoLuc fusion protein expressed in HEK293 cells assessed as apparent dissociation constant incubated for 30 mins in presence of digitonin by NanoBRET assay

[11] = Permeability of the compound at pH 7.4 in PBS incubated for 16 hrs by LC-MS/MS based PAMPA assay; assay type: ADME; details: read-out: permeability
[12] = target: T1, von Hippel-Lindau disease tumor suppressor; assay: Binding affinity to Navi-tagged VHL (unknown origin) assessed as dissociation constant by SPR assay

SMILES	Kd [9] [nM]	Kd [10] [nM]	further results
CC(=O)N[C@H](C(=O)N1C[C@H](O)C[C@H]1C(=O)N[C@@H](C)c1ccc(-c2scnc2C)cc1)C(C)(C)C	180	120	Papp A→B at 3 h, 10 µM [1]: 0.7 ×10⁻⁶ cm/s; fraction unbound at 4 h, 5 µM [2]: 0.516; fraction unbound at 4 h, 5 µM [3]: 0.399; solubility [4]: > 200 µM; clearance [5]: 57.7 mL/min/kg; Vd [6]: 0.9 L/kg; half-life [7]: 3.8 h; bioavailability [8]: 2.7%
NC(=O)[C@@H](Cc1ccc(-c2ccccc2)cc1)NC(=O)[C@@H]1C[C@@H](O)CN1C(=O)[C@@H](n1cc(C2CC2)nn1)C12CC3CC(CC(C3)C1)C2	67	83	–
NC(=O)[C@@H](Cc1ccc(-c2ccccc2)cc1)NC(=O)[C@@H]1C[C@@H](O)CN1C(=O)[C@H](C1CCC1)n1cc(C2CC2)nn1	110	100	–
CC(C)(C)[C@@H](C(=O)N1C[C@H](O)C[C@H]1C(=O)N[C@H](Cc1ccc(-c2ccccc2)cc1)C(N)=O)n1cc(C(=O)O)nn1	40100	310	–
C=CC(C)(C)[C@@H](C(=O)N1C[C@H](O)C[C@H]1C(=O)N[C@H](Cc1ccc(-c2ccccc2)cc1)C(N)=O)n1cc(C2CC2)nn1	63	84	–
CC(C)(C)[C@@H](C(=O)N1C[C@H](O)C[C@H]1C(=O)N[C@H](Cc1ccc(-c2ccccc2)cc1)C(N)=O)n1cc(C(N)=O)nn1	1900	210	–
CC(=O)N[C@H](C(=O)N1C[C@H](O)C[C@H]1C(=O)N[C@H](Cc1ccc(-c2ccccc2)cc1)C(N)=O)C(C)(C)C	–	–	Papp at 16 h [11]: 0.004 ×10⁻⁶ cm/s
CC[C@H](C)[C@@H](C(=O)N1C[C@H](O)C[C@H]1C(=O)N[C@H](Cc1ccc(-c2ccccc2)cc1)C(N)=O)n1cc(C2CC2)nn1	74	87	–
CC(C)(C)[C@H](N=[N+]=[N-])C(=O)N1C[C@H](O)C[C@H]1C(=O)N[C@H](Cc1ccc(-c2ccccc2)cc1)C(N)=O	35000	23900	–
CC(=O)N[C@H](C(=O)N1C[C@H](O)C[C@H]1C(=O)NC(C(N)=O)c1ccc(-c2scnc2C)cc1)C(C)(C)C (mixture of isomers)	5170	500	–

Continued, in another order:

Kd [9] [nM]	Kd [10] [nM]	SMILES	further results
> 51800	3290	CC(=O)N[C@H](C(=O)N1C[C@H](O)C[C@H]1C(=O)N[C@H](Cc1ccc(-c2scnc2C)cc1)C(N)=O)C(C)(C)C	Papp at 16 h [11]: 0.19 ×10⁻⁶ cm/s
3.3	3.9	Cc1ncsc1-c1ccc([C@H](C)NC(=O)[C@@H]2C[C@@H](O)CN2C(=O)[C@@H](n2cc(C3CC3)nn2)C(C)(C)C)cc1	–
< 2.5	< 2.5	Cc1ncsc1-c1ccc2c(c1)CCCC[C@@H]2NC(=O)[C@@H]1C[C@@H](O)CN1C(=O)[C@@H](n1cc(C2CC2)nn1)C(C)(C)C	Kd [12]: 0.54 nM; Papp A→B at 3 h, 10 µM [1]: 8.9 ×10⁻⁶ cm/s; fraction unbound at 4 h, 5 µM [2]: 0.003; fraction unbound at 4 h, 5 µM [3]: 0.003; solubility [4]: 190 µM (≈ 110 µg/mL); clearance [5]: 13.9 mL/min/kg; Vd [6]: 0.7 L/kg; half-life [7]: 2.3 h; bioavailability [8]: 46.5%
85	71	CC(C)(C)[C@@H](C(=O)N1C[C@H](O)C[C@H]1C(=O)N[C@H](Cc1ccc(-c2ccccc2)cc1)C(N)=O)n1cc(C2CC2)nn1	–
59	69	CCC(C)(C)[C@@H](C(=O)N1C[C@H](O)C[C@H]1C(=O)N[C@H](Cc1ccc(-c2ccccc2)cc1)C(N)=O)n1cc(C2CC2)nn1	–
6.3	6.5	Cc1ncsc1-c1ccc(CNC(=O)[C@@H]2C[C@@H](O)CN2C(=O)[C@@H](n2cc(C3CC3)nn2)C(C)(C)C)cc1	–
